Assay results: paper PMC8459971, “Evaluation of the hepatotoxicity of the novel GPR40 (FFAR1) agonist CPL207280 in the rat and monkey” (PLoS ONE, 2021)
Values joined by “and” are separate entries in the source; they are usually repeats but may differ in a detail not shown here. Equal values may be shown once. Read-outs that look alike come from different tables or passages of the source.

Columns and labels:
[1] = Stability in cryopreserved hepatocytes, rat; format: in vitro ADME; conditions: for Compound Remaining (% of 0 min): Hepatocyte Stability Rat, single replicates
Experimental: The final incubation volume was 500 μL. Two control compounds (verapamil and donepezil) were included for each microsomal species, along with the appropriate vehicle control. The reactions were terminated by transferring 50 μL of incubate to 100 μL methanol containing an internal standard (metoprolol) at appropriate time points (0, 10, 20, 40, 60, and 120 min for the test compound and 0, 5, 10, 20, 40, and 60 min for the control compounds). The termination plates were centrifuged at 4000 x g at 4°C for 30 min to precipitate the protein. The supernatants were then collected for analysis, and LC-MS/MS was used for detection purposes. The system consisted of an Acquity™ Binary Solvent Manager, Acquity™ 4-position heated column manager, 2777 Ultra High Pressure Autosampler, and a Xevo-TQ MS triple quadrupole mass spectrometer (Waters Ltd., Herts, UK). This process was carried out twice.

[2] = Metabolite profiling, monkey hepatocytes; format: in vitro ADME; conditions: 10 μM CPL207280, 60 min, ND = not detected
Experimental: Suspensions of cryopreserved human, rat, and monkey hepatocytes were pooled from a minimum of three individuals. All cryopreserved hepatocytes were purchased from a commercial supplier. […] The cell density was 0.5 ×10^6 viable cells/mL. The final DMSO concentration during the incubation was 0.25%. Control incubations were performed in lysed cells to reveal any non-enzymatic degradation. Two control compounds were identified in each species. Samples (50 μL) were removed from the incubation mixture at 0, 10, 20, 40, 60, and 120 min and added to methanol containing an internal standard (100 μL) to stop the reaction. The samples were centrifuged (4000 x g at 4°C for 30 min) and the supernatants at each time point were pooled for analysis by LC MS/MS using Cyprotex generic methods. Following hepatocyte stability assays, the samples were utilized for metabolite profiling. […] Metabolites were characterized using a mass spectrometer comprising Waters Xevo QT of G2-S, Acquity Binary Solvent Manager, Acquity Column Manager, and 2777 Autosampler.

[3] = Repeat-dose study in diabetic cynomolgus monkeys, serum ALT and AST; format: in vivo; conditions: 2.2 and 22 mg/kg, 28 treatment days
From the text: All animals aged 8–20 years had ad libitum access to water and were fed twice daily with a complete nutritionally balanced diet (Beijing Keao Xieli Feed Co., LTD, Beijing, China) enriched with seasonal fruits. The cynomolgus monkeys used in the study were cared for and handled in accordance with all applicable Association for Assessment and Accreditation of Laboratory Animal Care regulations and guidelines. […] After each treatment (weighing, bleeding, or dosing), the animals were clinically observed on the day of the procedure and, if previously anesthetized, the animals were monitored to stand up and alert. Nine selected diabetic animals were subjected to daily test compound (powder) dosing via natural feeding with bananas (n = 3). Blood from overnight-fasted animals was collected weekly in the morning for measurement of serum ALT and AST levels on days 0, 7, 14, 21, 28, and 35. Blood samples (1.5 mL) were collected from a cephalic or saphenous vein into BD Vacutainer® and K2-EDTA tubes.

HepaRG spheroids = assay: HepaRG 3D spheroids, cell and mitochondrial health markers, 14 days; conditions: for AC50: Homo sapiens, HepaRG
Experimental: Hepatic spheroids were formed by seeding HepaRG™ cells into round-bottom ultra-low adhesion 96-well spheroid plates (Corning®) in 3D liver media with 0.5% DMSO, 100 U/mL penicillin, and 100 mg/L streptomycin. Cells were incubated at 37°C and 5% CO2 until spheroid formation and then compound-treated. The test compound was diluted in the vehicle, and serial dilutions were made in a 0.5% vehicle in HepaRG™ induction media. […] L-buthionine sulfoximine was used as positive control for GSH content, whereas rotenone was simultaneously used as a positive control for mitochondrial dysfunction and ATP content. At the end of the incubation period, the cells were loaded with the relevant dye for each cell health marker: DNA structure–Hoescht, GSH content–mBCL, ROS formation–DHE, mitochondrial dysfunction–MitoTracker, and cellular ATP content–CellTiter-Glo®, Promega. The plate was then scanned using an automated confocal fluorescent cellular imager, ArrayScan® XTI (Thermo Scientific Cellomics) at 37°C and 5% CO2. Further, the cellular ATP content was measured using CellTiter-Glo® (Promega, USA).

[4] = Repeat-dose study in healthy Cynomolgus monkeys, safety (14 and 56 days)
[5] = cryopreserved hepatocytes (suspension), Rat (Sprague Dawley) hepatocytes, mean n = 2

## CC#C[C@@H](CC(=O)O)c1ccc(OCC(C)=C(C)C)cc1 [CPL207280]
[1]; 0 min
  Compound Remaining (% of 0 min): 100 % of 0 min
[1]; 10 min
  Compound Remaining (% of 0 min): 101 % of 0 min and 81.5 % of 0 min
[1]; 20 min
  Compound Remaining (% of 0 min): 79.0 % of 0 min and 77.8 % of 0 min
[1]; 40 min
  Compound Remaining (% of 0 min): 77.7 % of 0 min and 66.7 % of 0 min
[1]; 60 min
  Compound Remaining (% of 0 min): 72.8 % of 0 min and 73.3 % of 0 min
[1]; 120 min
  Compound Remaining (% of 0 min): 65.3 % of 0 min and 56.0 % of 0 min
[1]; [5]
  half-life at 3 μM: 3.1 h
  microsomal CLint at 3 μM: 7.51 µL/min/mg
[2]
  monkey % of parent at 60 min: 7.25%
[3]
  liver safety markers (ALT, AST) vs vehicle group: none of the doses altered liver safety markers
HepaRG spheroids; CONC 0.0457 uM, TIMEPOINT 336
  Cellular ATP Mean Plotted Value: 0.883
  DNA structure Mean Plotted Value: 1.26
  Glutathione content Mean Plotted Value: 0.866
  Mitochondrial mass Mean Plotted Value: 0.982
  Mitochondrial membrane potential Mean Plotted Value: 1.25
  Oxidative stress Mean Plotted Value: 1.15
  Spheroid count Mean Plotted Value: 1
  Spheroid size Mean Plotted Value: 0.924
HepaRG spheroids; CONC 0.137 uM, TIMEPOINT 336
  Cellular ATP Mean Plotted Value: 1.01
  DNA structure Mean Plotted Value: 1.14
  Glutathione content Mean Plotted Value: 1.11
  Mitochondrial mass Mean Plotted Value: 0.911
  Mitochondrial membrane potential Mean Plotted Value: 0.948
  Oxidative stress Mean Plotted Value: 1.02
  Spheroid count Mean Plotted Value: 1
  Spheroid size Mean Plotted Value: 0.943
HepaRG spheroids; CONC 0.412 uM, TIMEPOINT 336
  Cellular ATP Mean Plotted Value: 1.03
  DNA structure Mean Plotted Value: 1.12
  Glutathione content Mean Plotted Value: 1.09
  Mitochondrial mass Mean Plotted Value: 1
  Mitochondrial membrane potential Mean Plotted Value: 0.994
  Oxidative stress Mean Plotted Value: 1.02
  Spheroid count Mean Plotted Value: 1
  Spheroid size Mean Plotted Value: 0.942
HepaRG spheroids; CONC 3.7 uM, TIMEPOINT 336
  Cellular ATP Mean Plotted Value: 0.907
  DNA structure Mean Plotted Value: 0.692
  Glutathione content Mean Plotted Value: 0.924
  Mitochondrial mass Mean Plotted Value: 0.944
  Mitochondrial membrane potential Mean Plotted Value: 0.773
  Oxidative stress Mean Plotted Value: 1.02
  Spheroid count Mean Plotted Value: 1
  Spheroid size Mean Plotted Value: 0.935
HepaRG spheroids; CONC 33.3 uM, TIMEPOINT 336
  Cellular ATP Mean Plotted Value: 0.845
  DNA structure Mean Plotted Value: 0.889
  Glutathione content Mean Plotted Value: 0.907
  Mitochondrial mass Mean Plotted Value: 0.989
  Mitochondrial membrane potential Mean Plotted Value: 0.908
  Oxidative stress Mean Plotted Value: 1.13
  Spheroid count Mean Plotted Value: 1
  Spheroid size Mean Plotted Value: 0.953
HepaRG spheroids; CONC 100 uM, TIMEPOINT 336
  Cellular ATP Mean Plotted Value: 0.491
  DNA structure Mean Plotted Value: 0.692
  Glutathione content Mean Plotted Value: 0.767
  Mitochondrial mass Mean Plotted Value: 0.865
  Mitochondrial membrane potential Mean Plotted Value: 0.94
  Oxidative stress Mean Plotted Value: 1.13
  Spheroid count Mean Plotted Value: 1
  Spheroid size Mean Plotted Value: 0.861
HepaRG spheroids; HepaRG spheroid, TIMEPOINT 336
  Cellular ATP MEC: 24.8 (NS) uM
HepaRG spheroids; HepaRG spheroid, TIMEPOINT 336, at the concentration (uM) given
  Cellular ATP MR (% @ concentration): 48%
HepaRG spheroids; HepaRG spheroid, TIMEPOINT 336, plotted value at the concentration given
  Cellular ATP MR: 0.491
HepaRG spheroids; 336 h, read-out: Estimated AC50 (95% CI), Cellular ATP
  AC50: > 100 µM
HepaRG spheroids; 336 h, read-out: Estimated AC50 (95% CI), DNA structure
  AC50: > 100 µM
HepaRG spheroids; 336 h, read-out: Estimated AC50 (95% CI), Glutathione content
  AC50: > 100 µM
HepaRG spheroids; 336 h, read-out: Estimated AC50 (95% CI), Mitochondrial mass
  AC50: > 100 µM
HepaRG spheroids; 336 h, read-out: Estimated AC50 (95% CI), Mitochondrial membrane potential
  AC50: > 100 µM
HepaRG spheroids; 336 h, read-out: Estimated AC50 (95% CI), Oxidative stress
  AC50: > 100 µM
HepaRG spheroids; 336 h, read-out: Estimated AC50 (95% CI), Spheroid count
  AC50: > 100 µM
HepaRG spheroids; 336 h, read-out: Estimated AC50 (95% CI), Spheroid size
  AC50: > 100 µM
HepaRG spheroids; read-out: DNA structure AC50
  AC50: > 100 µM
HepaRG spheroids; read-out: Glutathione content AC50
  AC50: > 100 µM
HepaRG spheroids; read-out: Mitochondrial mass AC50
  AC50: > 100 µM
HepaRG spheroids; read-out: Mitochondrial membrane potential AC50
  AC50: > 100 µM
HepaRG spheroids; read-out: Oxidative stress AC50
  AC50: > 100 µM
HepaRG spheroids; read-out: Spheroid count AC50
  AC50: > 100 µM
HepaRG spheroids; read-out: Spheroid size AC50
  AC50: > 100 µM
HepaRG spheroids; summary comparison CPL207280 vs TAK-875
  Mitochondria Injury: <
[4]; 50–250 mg/kg/day, 14 and 56 days
  liver safety parameters: No alteration of liver safety parameters
[4]; after the 14 and 56-day treatment
  hepatocyte hypertrophy and liver mass: neither hypertrophy nor increased liver mass was observed
